The values that follow come from patent US6348211B1, “Compositions and methods for treatment of attention deficit disorder and attention deficit/hyperactivity disorder with methylphenidate” (Noven Pharmaceuticals, Inc., priority 1997, dated 2002).

Data set [1] in a line: Degradation of methylphenidate in topical composition in the presence of acid functional groups. The data set is classed as physicochemical. Particulars: with every 1% increase by weight in acid functional component of the topical composition. An excerpt: It has been discovered that methylphenidate, and in particular the base form, can be unstable and undergoes degradation in the presence of acid functional groups which are contained in adhesives, enhancers, excipients and other components of the topical composition. The major degradant/metabolite appears to be ritalinic acid, which increases about ten fold with every 1% increase by weight in such acid functional component. Such degradation can greatly reduce the amount of the active enantiomer during storage of the topical composition, thus reducing the amount of active methylphenidate available for drug delivery.

The conditions of data set [2]: among the four enantiomers of methylphenidate; cited from earlier work.

For `COC(=O)C(c1ccccc1)C1CCCCN1` (centres unmarked) [Methylphenidate], the “increase of major degradant ritalinic acid” value in data set [1] is on record as “about ten fold”. With `COC(=O)[C@H](c1ccccc1)[C@H]1CCCCN1` [d-threo-methylphenidate], the activity of enantiomer result in data set [2] is listed as “significantly active”.
